The results in this text go back to ChEMBL document CHEMBL3992484, “Synthetic α-Hydroxytropolones as Inhibitors of HIV Reverse Transcriptase Ribonuclease H Activity” (Medchemcomm, 2016).

Series [1] in a line: Inhibition of HIV-1 RT-RNase H using 18-nucleotide 3'-fluorescein-labeled RNA annealed to a complementary 18-nucleotide 5'-dabsyl-labeled DNA as substrate measured after 10 mins by FRET assay. Also on record: species or system Human immunodeficiency virus 1.
Series [2] relates to Human immunodeficiency virus 1. The experiment in a line: Stabilization of HIV-1 RT-RNase H assessed as change in melting temperature at 20 uM by sypro-orange dye-based differential scanning fluorimetric analysis. For orientation: Differential scanning fluorimetry follows unfolding on heating by fluorescence.
For series [3], the system named is Human immunodeficiency virus 1. The experiment in a line: Antiviral activity against HIV1 RF infected in human CEM-SS cells assessed as protection against viral-induced cytopathic effect after 7 days by XTT assay. The following applies: Human immunodeficiency virus 1, RF, 168 h. The class given is functional, cell-based.
Series [4] in a line: Cytotoxicity against human CEM-SS cells after 7 days by XTT assay. The class given is cell-based.

Structures are written as SMILES.

Broadly, the IC50 is the point on the concentration scale where inhibition reaches its midpoint. A high value points to weaker potency in that assay. For orientation: ΔTm means the shift of the melting midpoint relative to a reference. As a reminder, the EC50 is the concentration giving half of the maximal effect. One may read the CC50 as the concentration at which the toxic effect on the cells reaches its halfway point. A higher CC50 goes with lower toxicity to the cells. Compound `COC(=O)c1c(C)cc(O)c(=O)c(O)c1Br` had an IC50 in series [1] of 0.13 µM. Besides, in series [2], the ΔTm was 2.48 °C. Besides, in series [3], the EC50 was determined as 2.2 µM. The compound further displayed a CC50 at 168 h in series [4] of 7.6 µM.

Compound `CCOC(=O)c1cc(O)c(=O)c(O)cc1C` showed an IC50 in series [1] of 0.25 µM. Moreover, the shift in melting temperature (ΔTm) in series [2] was found to be 2.4 °C. Moreover, the EC50 in series [3] amounted to 5 µM.

In turn, `CC(=O)c1cc(O)c(=O)c(O)cc1C` displayed an IC50 in series [1] of 0.29 µM. The ΔTm in series [2] amounted to 2.9 °C. In series [3], the EC50 was found to be 6.9 µM. The CC50 at 168 h in series [4] came to 20 µM.

`COC(=O)c1cc(O)c(=O)c(O)cc1C` returned an IC50 in series [1] of 0.16 µM. Besides, the ΔTm in series [2] turned out to be 2.7 °C. Further, in series [3], the EC50 came out at 7.5 µM.

On to `CC(C)c1ccc(O)c(=O)c(O)c1`, for which the ΔTm in series [2] stood at 2.3 °C.
